“Also recorded” adds a separate entry of the source.
How the values were obtained:
[1] = Stability in enzyme-free control buffer; format: in vitro ADME; details: enzyme-free buffer pH 7.4
Source text: A fundamental evaluation in drug development is the assessment of absorption, distribution, metabolism, excretion, and pharmacokinetics (ADME/PK) (Eddershaw et al., 2000, Drug Discovery Today 5(9): 409-414). […] Drug stability upon exposure to human liver microsomes and liver S9 cellular fractions is a common in vitro assay to approximate in vivo, liver-based drug metabolism (Richardson et al., 2016 Drug Metabolism Letters 10:83-90). First-pass metabolism is also often approximated in vitro using intestinal microsome and cellular S9 fractions (Hatley et al., 2017, Biopharmaceuticals & Drug Disposition, 38(2):155-160). […] Supernatants were analyzed for the presence of candidate prodrugs (parent molecule) and psilocin (the predicted metabolite) using Orbitrap LC-MS (Thermo Scientific) using previously described methods (Menéndez-Perdomo et al., 2021, J. Mass Spectrom., 56: e4683). […] Assay concentrations (μM) of both parent ‘prodrug’ molecule and psilocin metabolite, as quantified through LC-MS using routine standard curve procedures, were plotted as functions of assay time (minutes). The metabolism rate (T1/2) was determined from the metabolism curve plot using the one phase decay feature of GraphPad PRISM software (Version 9.2.0). The quantity of parent prodrug at time zero was set as 100%.

[2] = Mouse pharmacokinetic (PK) evaluation of drug metabolism to psilocin; details: for Plasma concentration of psilocin: 24 h
in vitro = in vitro ADME, human
Source text: (§1) A fundamental evaluation in drug development is the assessment of absorption, distribution, metabolism, excretion, and pharmacokinetics (ADME/PK) (Eddershaw et al., 2000, Drug Discovery Today 5(9): 409-414). […] Drug stability upon exposure to human liver microsomes and liver S9 cellular fractions is a common in vitro assay to approximate in vivo, liver-based drug metabolism (Richardson et al., 2016 Drug Metabolism Letters 10:83-90). First-pass metabolism is also often approximated in vitro using intestinal microsome and cellular S9 fractions (Hatley et al., 2017, Biopharmaceuticals & Drug Disposition, 38(2):155-160). Further, it is well known that human serum, and particularly circulating serum esterases can contribute to systemic drug metabolism (Williams, F M 1987, Pharmacology and Therapeutics, 34:99-109). Many pharmacological agents are classified as prodrugs, as they undergo metabolic transformation in vivo upon administration to release the active drug compound into the systemic compartment (Zawilska J B, et al. 2013, Pharmacological Reports, 65:1-14). Psilocybin, a serotonergic psychedelic agent, is well known prodrug that is metabolized into the psychoactive product, psilocin (Dinis-Oliveira, R J 2017, Drug Metabolism Reviews, 49(1):84-91). To evaluate the capacity of test molecules to similarly serve as prodrugs of psilocin, time-dependent, metabolic stability assays using human AB serum, human intestinal microsomes (HIM), human intestinal S9 fractions (HIS9), human liver microsomes (HLM), human liver S9 fractions (HLS9), human alkaline phosphatase, and porcine esterase were performed. […] Liquid chromatography coupled mass spectrometry (LC-MS) was employed to track the conversion of the test molecules into psilocin. All intestinal and liver fractions and NADPH RapidStart reagent was purchased from Sekisui/XenoTech. Human AB serum was purchased from Sigma. For intestine and liver metabolism assays, 2.5 μM candidate compounds were incubated in 400 μg/ml of each cellular fraction (HLM, HLS9, HIM, or HIS9) in 50 mM potassium phosphate buffer (pH 7.4) containing 3 mM MgCl2 and 1 mM EDTA supplemented with NADPH RapidStart at 37° C. Samples were taken at the start of the assay, and at every 20 minutes for 2 hours. Time-point samples were precipitated with 1:1 volume of acetonitrile to quench the reaction before centrifugation at 4000×g for 20 minutes. Supernatants were analyzed for the presence of candidate prodrugs (parent molecule) and psilocin (the predicted metabolite) using Orbitrap LC-MS (Thermo Scientific) using previously described methods (Menéndez-Perdomo et al., 2021, J. Mass Spectrom., 56: e4683). The serum assays were carried out in 10% human AB serum in 50 mM potassium phosphate buffer (pH 7.4) containing 3 mM MgCl2 and 1 mM EDTA. Bovine alkaline phosphatase assays were carried out using one unit of purified enzyme in 50 mM potassium phosphate buffer (pH 7.4) containing 3 mM MgCl2 and 1 mM EDTA. Porcine esterase assays were carried out using one unit of purified enzyme in 50 mM potassium phosphate buffer (pH 7.4) containing 3 mM MgCl2 and 1 mM EDTA. Assay concentrations (μM) of both parent ‘prodrug’ molecule and psilocin metabolite, as quantified through LC-MS using routine standard curve procedures, were plotted as functions of assay time (minutes). The metabolism rate (T1/2) was determined from the metabolism curve plot using the one phase decay feature of GraphPad PRISM software (Version 9.2.0). The quantity of parent prodrug at time zero was set as 100%.
Positive controls were first tested to ensure that assays were functioning properly.

[3] = In vitro metabolic stability / psilocin release, human AB serum; format: in vitro ADME; details: AB serum
Source text: as §1, with “For intestine and liver metabolism assays, 2.5 μM candidate compounds were incubated in 400 μg/ml of each cellular fraction (HLM, HLS9, HIM, or HIS9) in 50 mM potassium phosphate buffer (pH 7.4) containing 3 mM MgCl2 and 1 mM EDTA supplemented with NADPH RapidStart at 37° C. Samples were taken at the start of the assay, and at every 20 minutes for 2 hours. Time-point samples were precipitated with 1:1 volume of acetonitrile to quench the reaction before centrifugation at 4000×g for 20 minutes.” left out, “The serum assays were carried out in 10% human AB serum in 50 mM potassium phosphate buffer (pH 7.4) containing 3 mM MgCl2 and 1 mM EDTA. Bovine alkaline phosphatase assays were carried out using one unit of purified enzyme in 50 mM potassium phosphate buffer (pH 7.4) containing 3 mM MgCl2 and 1 mM EDTA. Porcine esterase assays were carried out using one unit of purified enzyme in 50 mM potassium phosphate buffer (pH 7.4) containing 3 mM MgCl2 and 1 mM EDTA.” left out, “100%. […]” for “100%.”

5-HT1A receptor = target: T1, 5-HT1A receptor (Homo sapiens, UniProt P08908); assay: cAMP-Glo assay in +5-HT1A / -5-HT1A CHO-K1 cells; format: cell-based; details: forskolin-stimulated +5-HT1A vs -5-HT1A cells, increasing ligand
T1 construct: host or cells: CHO-K1 (co-expressing Ga15)
T1 sequence (P08908 1-422): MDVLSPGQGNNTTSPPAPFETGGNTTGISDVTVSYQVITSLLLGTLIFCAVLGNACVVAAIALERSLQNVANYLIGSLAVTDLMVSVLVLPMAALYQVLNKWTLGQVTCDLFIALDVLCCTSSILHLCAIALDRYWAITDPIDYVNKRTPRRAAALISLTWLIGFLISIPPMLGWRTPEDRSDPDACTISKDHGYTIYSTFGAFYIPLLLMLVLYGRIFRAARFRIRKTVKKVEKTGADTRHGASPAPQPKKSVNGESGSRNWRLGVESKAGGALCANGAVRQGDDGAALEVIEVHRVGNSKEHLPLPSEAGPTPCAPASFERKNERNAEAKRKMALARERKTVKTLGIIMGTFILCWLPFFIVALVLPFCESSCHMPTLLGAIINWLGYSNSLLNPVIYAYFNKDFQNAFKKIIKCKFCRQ

5-HT2A receptor = 5-HT2A receptor (Homo sapiens, UniProt P28223); assay: [3H]ketanserin competition radioligand binding assay (SPA); details: control ligands
Sequence of 5-HT2A receptor (P28223 whole entry): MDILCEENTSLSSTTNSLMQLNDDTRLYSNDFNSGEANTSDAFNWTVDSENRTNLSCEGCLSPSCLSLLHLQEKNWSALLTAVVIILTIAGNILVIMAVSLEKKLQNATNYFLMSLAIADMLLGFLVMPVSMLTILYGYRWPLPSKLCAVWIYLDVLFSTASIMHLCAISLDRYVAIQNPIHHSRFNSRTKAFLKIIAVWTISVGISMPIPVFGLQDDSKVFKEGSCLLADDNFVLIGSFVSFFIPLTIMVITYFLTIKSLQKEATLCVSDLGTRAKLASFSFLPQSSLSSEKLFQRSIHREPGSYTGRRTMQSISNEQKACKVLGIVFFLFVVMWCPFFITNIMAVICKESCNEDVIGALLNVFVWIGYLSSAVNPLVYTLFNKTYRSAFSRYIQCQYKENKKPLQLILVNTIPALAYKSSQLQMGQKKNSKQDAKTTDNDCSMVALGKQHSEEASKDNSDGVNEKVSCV

CN(C)CCc1c[nH]c2cccc(OP(=O)(O)O)c12 [psilocybin, reference compound]
stability in assay buffer (in words) [1]: stability of psilocybin was confirmed in assay buffer | Plasma concentration of administered (parent) compound ([2]; 1 mg/kg i.v., 0.5 h, individual mice): No Peak | Plasma concentration of administered (parent) compound ([2]; 1 mg/kg i.v., 1 h, individual mice): No Peak | Plasma concentration of administered (parent) compound ([2]; 1 mg/kg i.v., 2 h, individual mice): No Peak | Plasma concentration of administered (parent) compound ([2]; 1 mg/kg i.v., 4 h, individual mice): No Peak | Plasma concentration of administered (parent) compound ([2]; 1 mg/kg i.v., 6 h, individual mice): No Peak | Plasma concentration of administered (parent) compound ([2]; 1 mg/kg i.v., 8 h, individual mice): No Peak | tmax (parent compound in plasma) ([2]; 1 mg/kg i.v., individual mice): 5 min | tmax (parent compound in plasma) ([2]; 1 mg/kg i.v., mean ± SD): 5 ± 0 min | Plasma concentration of psilocin ([2]; 1.56 mg/kg oral of administered compound, individual mice): BLQ | Plasma concentration of psilocin ([2]; 3 mg/kg oral of administered compound, individual mice): BLQ | concentration at 5 min ([2]; male, C57Bl/6, mouse, plasma, intravenous, 1 mg/kg, Plasma concentration of administered (parent) compound, 1 mg/kg i.v., 5 min, mean ± SD): 144 ± 167 ng/mL | concentration at 0.25 h ([2]; male, C57Bl/6, mouse, plasma, intravenous, 1 mg/kg, Plasma concentration of administered (parent) compound, 1 mg/kg i.v., 0.25 h, mean ± SD): 13.2 ± 12.5 ng/mL | concentration at 0.5 h ([2]; male, C57Bl/6, mouse, plasma, intravenous, 1 mg/kg, Plasma concentration of administered (parent) compound, 1 mg/kg i.v., 0.5 h, mean ± SD): 4.28 ng/mL | concentration at 1 h ([2]; male, C57Bl/6, mouse, plasma, intravenous, 1 mg/kg, Plasma concentration of administered (parent) compound, 1 mg/kg i.v., 1 h, individual mice): 1.21 ng/mL | concentration at 1 h ([2]; male, C57Bl/6, mouse, plasma, intravenous, 1 mg/kg, Plasma concentration of administered (parent) compound, 1 mg/kg i.v., 1 h, mean): 1.21 ng/mL | concentration at 8 h ([2]; male, C57Bl/6, mouse, plasma, intravenous, 1 mg/kg, Plasma concentration of administered (parent) compound, 1 mg/kg i.v., 8 h, individual mice): 2.54 ng/mL | Cmax ([2]; male, C57Bl/6, mouse, plasma, iv, 1 mg/kg, Cmax (parent compound in plasma), 1 mg/kg i.v., mean ± SD): 144 ± 167 ng/mL | detectability of administered compound in plasma (in words) ([2]; oral vs i.v. dosing): only detectable in i.v. administered animals; also recorded: not detectable in orally administered animals at any dose | metabolic stability / conversion to psilocin (in words) (in vitro; HLM): stable in liver fractions with no conversion to psilocin | metabolic stability / conversion to psilocin (in words) (in vitro; HLS9): stable in liver fractions with no conversion to psilocin | metabolic stability / conversion to psilocin (in words) [3]: stable in serum with no conversion to psilocin

NCCc1c[nH]c2ccc(O)cc12 [serotonin]
cAMP level / 5-HT1A receptor modulation (in words) (5-HT1A receptor): reduction in cAMP levels

N[C@@H](Cc1c[nH]c2ccccc12)C(=O)O [tryptophan]
5-HT2A competition binding (in words) (5-HT2A receptor): negative control (no binding) | cAMP level / 5-HT1A receptor modulation (in words) (5-HT1A receptor): no reduction in cellular cAMP levels

— patent publication US11707447B1
